# Molecular target: T1, Recombinant human CBP containing the bromodomain (CBP-BD (1043-1159)) (Homo sapiens, UniProt Q92793)
# T1 construct: Recombinant human CBP bromodomain (CBP-BD (1043-1159)); made in house; host or cells: E. coli BL21-CodonPlus (DE3), modified pET vector
# Assay: CBP Alphascreen binding assay
# Conditions: read-out: CREBBP (CBP) IC50
# Description: CBP Alphascreen Binding Assay
# Binding of compounds of Formula (I) with CBP was assessed using Alphascreen™ binding assay. The inhibition of the interaction between the CBP bromodomain and its acetylated target protein was measured quantitatively using recombinant CBP, an acetylated Histone 3 peptide and AlphaScreen™ technology. In absence of inhibition of the CBP protein bound to AlphaScreen™ nickel chelate acceptor beads can interact with the acetylated Histone 3 peptide which was immobilized by the AlphaScreen™ Streptavidin coated beads. This interaction brings donor and acceptor beads in proximity. The close proximity allows the singlet oxygen produced by laser excitation of the donor beads to reach the acceptor beads and generate a luminescence signal. CBP inhibitors result in a decrease in the proximity signal through an inhibition of the CBP—acetylated peptide interaction.
# Recombinant human CBP containing the bromodomain (CBP-BD (1043-1159)) was prepared and purified as described in protein expression and purification session. The peptide was human Histone H345-64K56Ac-Biotin (Anaspec CA, USA).
# Protocol for CBP assay: All components are prepared in buffer composed of 50 mM HEPES pH 7.5, 50 mM NaCl, 0.01% BSA, 0.01% Triton X-100, 2 mM DTT. Test compounds and DMSO vehicle are diluted 1:50 in buffer and a 4 μL volume was transferred to an Alphaplate. 5.5 μL of CBP protein and 5.5 μL of peptide are added to wells containing 4 μL of various concentrations of test compounds of Formula (I) or DMSO vehicle in an Alphaplate (PerkinElmer GA, USA) and incubated for 1 hour at room temperature. 5 μL donor and acceptor bead mixture was then added with final concentrations of 7.5 μg/ml. 60 minutes after bead addition, Alpha signal was read on the Envision spectrometer (λEx 680 nm, λEm 520-620 nm). Final concentrations of bromodomain proteins and peptide are as shown below.
# All data were normalized to the mean of 16 high and 16 low control wells on each plate. A four parameter curve fit of the following formula was then applied: Y=A+((B−A)/(1+((C/x)^D))) Where ‘A’ is the minimum, ‘B’ is the maximum, ‘C’ is the IC50 and ‘D’ is the Hill slope. Protein Expression and Purification
# Recombinant human CBP bromodomain (CBP-BD (1043-1159)) was expressed in E. coli cells (in a modified pET vector) with an N-terminal six-His tag and purified using a combination of both IMAC (Ni-affinity) and size exclusion chromatography steps.
# Recombinant CBP protein was expressed using the E. coli strain BL21-CodonPlus (DE3) (Agilent Technologies CA, USA). Cells were grown in Terrific Broth (TB) media to an OD600 of 0.92 at 37° C. at which temperature was reduced to 20° C., protein was induced with 1.0 mM isopropyl-β-D-thiogalactopyranoside (“IPTG”) for 20 hours and harvested by centrifugation at 8500×g for 20 minutes. Cells were re-suspended in 0.1M K2PO4 pH 8.0, 250 mM NaCl, 10% Glycerol, 0.75% NP-40, 25 mM Imidazole, with 0.2 mg/ml Lysozyme, 0.2 mM phenylmethanesulfonyl fluoride (“PMSF”), […] (“BME”), 25 μg/ml DNase I, incubated on ice for 30 minutes and lysed with a cell disruptor (MicroFluidics MA, USA). The lysate was clarified by centrifugation at 20,000×g for 1 hour. The protein was captured with Ni-NTA resin (Life Technologies, USA). Contaminating proteins were washed off with 40 mM HEPES pH 7.5, 500 mM NaCl, 5% Glycerol, 5 mM Imidazole, and 5 mM BME. Following 3× wash steps, protein was eluted using 400 mM Imidazole in 40 mM HEPES pH 7.5, 400 mM NaCl, and 5 mM BME. The protein was further purified using a size exclusion column (26/600 Superdex 200, GE Biosciences NJ, USA) in 40 mM HEPES pH 7.5, 250 mM NaCl, 5 mM BME. The protein was aliquoted and flash-frozen in liquid Nitrogen.
# T1 sequence (Q92793 1081-1197): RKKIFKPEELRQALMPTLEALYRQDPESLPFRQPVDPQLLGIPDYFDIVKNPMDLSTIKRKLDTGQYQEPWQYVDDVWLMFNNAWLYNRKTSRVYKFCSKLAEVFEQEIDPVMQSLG
row,SMILES,IC50 [µM]
1,"Cc1noc(C)c1-c1cnc2c(c1)c(-c1ccc(C(=O)O)cc1OCC(F)(F)F)cn2[C@@H](C)c1ccccn1 [P-0115, (S)-4-(5-(3,5-dimethylisoxazol-4-yl)-1-(1-(pyridin-2-yl)ethyl)-1H-pyrrolo[2,3-b]pyridin-3-yl)-3-(2,2,2-trifluoroethoxy)benzoic acid]",0.0001 to 1
2,"Cc1noc(C)c1-c1cnc2c(c1)c(-c1ccc(C(=O)O)cc1C(F)(F)F)cn2[C@@H](C)c1ccccn1 [P-0116, (S)-4-(5-(3,5-dimethylisoxazol-4-yl)-1-(1-(pyridin-2-yl)ethyl)-1H-pyrrolo[2,3-b]pyridin-3-yl)-3-(trifluoromethyl)benzoic acid]",0.0001 to 1
3,"CCCOc1cc(C(=O)O)cc(OCCC)c1-c1cn([C@@H](C)c2ccccn2)c2ncc(-c3c(C)noc3C)cc12 [P-0117, (S)-4-(5-(3,5-dimethylisoxazol-4-yl)-1-(1-(pyridin-2-yl)ethyl)-1H-pyrrolo[2,3-b]pyridin-3-yl)-3,5-dipropoxybenzoic acid]",0.0001 to 1
4,"Cc1noc(C)c1-c1cnc2c(c1)c(-c1c(OC(C)C)cc(C(=O)O)cc1OC(C)C)cn2[C@@H](C)c1ccccn1 [P-0118, (S)-4-(5-(3,5-dimethylisoxazol-4-yl)-1-(1-(pyridin-2-yl)ethyl)-1H-pyrrolo[2,3-b]pyridin-3-yl)-3,5-diisopropoxybenzoic acid]",0.0001 to 1
5,"COc1cc(C(=O)O)cc(OC)c1-c1cn(C(C)c2ccccc2)c2cc(-c3c(C)noc3C)cnc12 (stereo not drawn) [P-0119, 4-(6-(3,5-dimethylisoxazol-4-yl)-1-(1-phenylethyl)-1H-pyrrolo[3,2-b]pyridin-3-yl)-3,5-dimethoxybenzoic acid]",0.0001 to 1
6,"Cc1noc(C)c1-c1cnc2c(-c3ccccc3C(=O)O)cn(C(C)c3ccccc3)c2c1 (stereo not drawn) [P-0120, 2-(6-(3,5-dimethylisoxazol-4-yl)-1-(1-phenylethyl)-1H-pyrrolo[3,2-b]pyridin-3-yl)benzoic acid]",1 to 8
7,"Cc1noc(C)c1-c1cnc2c(C(=O)C3CCC3)cn(-c3c(Cl)cc(C(=O)O)cc3Cl)c2c1 [P-0121, 3,5-dichloro-4-(3-(cyclobutanecarbonyl)-6-(3,5-dimethylisoxazol-4-yl)-1H-pyrrolo[3,2-b]pyridin-1-yl)benzoic acid]",0.0001 to 1
8,"Cc1noc(C)c1-c1cnc2c(c1)c(-c1cccc(C(=O)O)n1)cn2C(C)c1ccccn1 (stereo not drawn) [P-0122, 6-(5-(3,5-dimethylisoxazol-4-yl)-1-(1-(pyridin-2-yl)ethyl)-1H-pyrrolo[2,3-b]pyridin-3-yl)picolinic acid]",1 to 8
9,"Cc1noc(C)c1-c1cnc2c(c1)c(-c1ccc(C(=O)O)cn1)cn2C(C)c1ccccn1 (stereo not drawn) [P-0123, 6-(5-(3,5-dimethylisoxazol-4-yl)-1-(1-(pyridin-2-yl)ethyl)-1H-pyrrolo[2,3-b]pyridin-3-yl)nicotinic acid]",0.0001 to 1
10,"Cc1noc(C)c1-c1cnc2c(c1)c(-c1cc(C(=O)O)ccn1)cn2C(C)c1ccccn1 (stereo not drawn) [P-0124, 2-(5-(3,5-dimethylisoxazol-4-yl)-1-(1-(pyridin-2-yl)ethyl)-1H-pyrrolo[2,3-b]pyridin-3-yl)isonicotinic acid]",0.0001 to 1
11,"Cc1noc(C)c1-c1cnc2c(c1)c(-c1ccc(F)c(C(=O)O)c1F)cn2[C@@H](C)c1ccccn1 [P-0125, (S)-3-(5-(3,5-dimethylisoxazol-4-yl)-1-(1-(pyridin-2-yl)ethyl)-1H-pyrrolo[2,3-b]pyridin-3-yl)-2,6-difluorobenzoic acid]",0.0001 to 1
12,"Cc1noc(C)c1-c1cnc2c(c1)c(-c1ccnc(C(=O)O)n1)cn2C(C)c1ccccn1 (stereo not drawn) [P-0126, 4-(5-(3,5-dimethylisoxazol-4-yl)-1-(1-(pyridin-2-yl)ethyl)-1H-pyrrolo[2,3-b]pyridin-3-yl)pyrimidine-2-carboxylic acid]",0.0001 to 1
13,"CCCOc1cc(C(=O)O)cc(OCCC)c1-n1cc(CC2CCC2)c2ncc(-c3c(C)noc3C)cc21 [P-0127, 4-(3-(cyclobutylmethyl)-6-(3,5-dimethylisoxazol-4-yl)-1H-pyrrolo[3,2-b]pyridin-1-yl)-3,5-dipropoxybenzoic acid]",0.0001 to 1
14,"Cc1noc(C)c1-c1cnc2c(Cc3cccc(Cl)c3)cn(-c3c(Cl)cc(C(=O)O)cc3Cl)c2c1 [P-0128, 3,5-dichloro-4-(3-(3-chlorobenzyl)-6-(3,5-dimethylisoxazol-4-yl)-1H-pyrrolo[3,2-b]pyridin-1-yl)benzoic acid]",0.0001 to 1
15,"Cc1noc(C)c1-c1cnc2c(C(=O)c3cccc(OC(F)F)c3)cn(-c3c(Cl)cc(C(=O)O)cc3Cl)c2c1 [P-0129, 3,5-dichloro-4-(3-(3-(difluoromethoxy)benzoyl)-6-(3,5-dimethylisoxazol-4-yl)-1H-pyrrolo[3,2-b]pyridin-1-yl)benzoic acid]",0.0001 to 1
16,"Cc1noc(C)c1-c1cnc2c(CC3CCC3)cn(-c3ccc([N+](=O)[O-])cc3F)c2c1 [P-0130, 4-(3-(cyclobutylmethyl)-1-(2-fluoro-4-nitrophenyl)-1H-pyrrolo[3,2-b]pyridin-6-yl)-3,5-dimethylisoxazole]",8 to 1000
17,"Cc1noc(C)c1-c1cnc2c(Cc3ccccc3Cl)cn(-c3c(Cl)cc(C(=O)O)cc3Cl)c2c1 [P-0131, 3,5-dichloro-4-(3-(2-chlorobenzyl)-6-(3,5-dimethylisoxazol-4-yl)-1H-pyrrolo[3,2-b]pyridin-1-yl)benzoic acid]",0.0001 to 1
18,"Cc1noc(C)c1-c1cnc2c(Cc3cccc(OCc4ccccc4)c3)cn(-c3c(Cl)cc(C(=O)O)cc3Cl)c2c1 [P-0132, 4-(3-(3-(benzyloxy)benzyl)-6-(3,5-dimethylisoxazol-4-yl)-1H-pyrrolo[3,2-b]pyridin-1-yl)-3,5-dichlorobenzoic acid]",0.0001 to 1
19,"Cc1noc(C)c1-c1cnc2c(C(=O)c3cccc(OCc4ccccc4)c3)cn(-c3c(Cl)cc(C(=O)O)cc3Cl)c2c1 [P-0133, 4-(3-(3-(benzyloxy)benzoyl)-6-(3,5-dimethylisoxazol-4-yl)-1H-pyrrolo[3,2-b]pyridin-1-yl)-3,5-dichlorobenzoic acid]",0.0001 to 1
20,"COc1ccc(-n2cc(CC3CCC3)c3ncc(-c4c(C)noc4C)cc32)cn1 [P-0134, 4-(3-(cyclobutylmethyl)-1-(6-methoxypyridin-3-yl)-1H-pyrrolo[3,2-b]pyridin-6-yl)-3,5-dimethylisoxazole]",1 to 8
21,"COc1cc(C(=O)O)cc(OCc2ccccc2)c1-c1cn([C@@H](C)c2ccccn2)c2ncc(-c3c(C)noc3C)cc12 [P-0135, (S)-3-(benzyloxy)-4-(5-(3,5-dimethylisoxazol-4-yl)-1-(1-(pyridin-2-yl)ethyl)-1H-pyrrolo[2,3-b]pyridin-3-yl)-5-methoxybenzoic acid]",0.0001 to 1
22,"COc1c(C(=O)O)cccc1-c1cn(C(C)c2ccccc2)c2cc(-c3c(C)noc3C)cnc12 (stereo not drawn) [P-0136, 3-(6-(3,5-dimethylisoxazol-4-yl)-1-(1-phenylethyl)-1H-pyrrolo[3,2-b]pyridin-3-yl)-2-methoxybenzoic acid]",0.0001 to 1
23,"Cc1noc(C)c1-c1cnc2c(c1)c(-c1ccc(C(=O)O)cc1OC1COC1)cn2[C@@H](C)c1ccccn1 [P-0137, (S)-4-(5-(3,5-dimethylisoxazol-4-yl)-1-(1-(pyridin-2-yl)ethyl)-1H-pyrrolo[2,3-b]pyridin-3-yl)-3-(oxetan-3-yloxy)benzoic acid]",0.0001 to 1
24,"Cc1noc(C)c1-c1cnc2c(c1)c(-c1ccc(C(=O)O)cc1OCC1CC1)cn2[C@@H](C)c1ccccn1 [P-0138, (S)-3-(cyclopropylmethoxy)-4-(5-(3,5-dimethylisoxazol-4-yl)-1-(1-(pyridin-2-yl)ethyl)-1H-pyrrolo[2,3-b]pyridin-3-yl)benzoic acid]",0.0001 to 1

# Reference: US11446287B2, “Compounds and methods for EP300 or CBP modulation and indications therefor” (Opna Immuno-Oncology SA, priority 2019, dated 2022)
